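In this assay, cells in 96-well plates receive the compound at five concentrations for 48 hours. Endpoints are linearly interpolated between the surrounding concentrations. GI50 is the concentration that inhibits growth by half. TGI denotes the concentration required for complete inhibition of growth.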 Where a SMILES comes first, the peptide text is derived from it. Bridges are numbered along the chain shown (N, C = ends). [ ]: non-standard residue; d: D form. The star is where a group is joined. ξ: configuration not given here. X26 = O=C(/C=C/C=C/C=C/C=C/C=C/C(=O)*)NC1=C(O)CCC1=O; NMeA = CN[C@@H](C)C(=O)O; ξF = NC(Cc1ccccc1)C(=O)O; ξA = CC(N)C(=O)O
Experiments:
Experiment in all cases: NCI tumour cell line growth inhibition, 48 h
BT-549 breast = system: BT-549 breast
COLO 205 colon = system: COLO 205 colon
DU-145 prostate = system: DU-145 prostate
HS 578T breast = system: HS 578T breast
NCI-H460 lung = system: NCI-H460 lung
OVCAR-4 ovarian = system: OVCAR-4 ovarian
OVCAR-5 ovarian = system: OVCAR-5 ovarian
SF-268 CNS = system: SF-268 CNS
SK-MEL-5 melanoma = system: SK-MEL-5 melanoma
UACC-257 melanoma = system: UACC-257 melanoma

Row | Compound | TGI (BT-549 breast) [µM] | TGI (COLO 205 colon) [µM] | TGI (DU-145 prostate) [µM] | TGI (HS 578T breast) [µM] | TGI (NCI-H460 lung) [µM] | TGI (OVCAR-4 ovarian) [µM] | TGI (OVCAR-5 ovarian) [µM] | TGI (SF-268 CNS) [µM] | TGI (SK-MEL-5 melanoma) [µM] | TGI (UACC-257 melanoma) [µM] | GI50 (BT-549 breast) [µM] | GI50 (COLO 205 colon) [µM] | GI50 (DU-145 prostate) [µM] | GI50 (HS 578T breast) [µM] | GI50 (NCI-H460 lung) [µM] | GI50 (OVCAR-4 ovarian) [µM] | GI50 (OVCAR-5 ovarian) [µM] | GI50 (SF-268 CNS) [µM] | GI50 (SK-MEL-5 melanoma) [µM] | GI50 (UACC-257 melanoma) [µM]
1 | CC(=O)c1cccn1/C=C(\OC(=O)OC(C)(C)C)c1ccc[nH]1 | > 100 | > 100 | > 100 | > 100 | > 100 | > 100 | > 100 | > 100 | > 100 | > 100 |  |  |  |  |  |  |  |  |  | 
2 | CC1NC(=O)[C@H](C)N(C)C(=O)[C@@H]2CCCN2C(=O)[C@@H](NC(=O)C(Cc2ccccc2)NC(=O)/C=C/C=C/C=C/C=C/C=C/C(=O)NC2=C(O)CCC2=O)COC(=O)[C@@H]2CCCN2C1=O (stereo not given in full) (X26-[ξF]SP[NMeA][ξA]P; ester 2-C) | > 100 | > 100 | > 100 | > 100 | > 100 | > 100 | > 100 | > 100 | > 100 | > 100 |  |  |  |  |  |  |  |  |  | 
3 | CN(Cc1ccccc1)c1cc(=O)n(C)c(=O)[nH]1 | > 100 | > 100 | > 100 | > 100 | > 100 | > 100 | > 100 | > 100 | > 100 | > 100 |  |  |  |  |  |  |  |  |  | 
4 | C[C@]12CC[C@@H]3c4ccc(O)cc4CC[C@H]3[C@@H]1C/C(=C\c1ccncc1)[C@@H]2O | 14.2 | 19.8 | > 100 | 20.9 | 68.2 | > 100 | > 100 | 55.5 | 17.3 | > 100 |  |  |  |  |  |  |  |  |  | 
5 | c1csc(-c2ccc(-c3cccs3)c3nsnc23)c1 | > 100 | 27.1 | > 70.6 | 47.2 | > 100 | > 100 | > 100 | > 59.2 | > 55.5 | > 100 |  |  |  |  |  |  |  |  |  | 
6 | Clc1ccc(CSCCc2ccncc2)cc1Cl | 42.6 | 27.2 | > 100 | 53.8 | > 100 | 98.7 | 66.8 | 49.5 | 29.9 | > 100 |  |  |  |  |  |  |  |  |  | 
7 | CCCCn1cnc2c(c(CC#N)nn2-c2ccccc2)c1=N | > 100 | 92.8 | > 100 | > 100 | > 100 | > 100 | > 100 | > 100 | 46.7 | > 100 |  |  |  |  |  |  |  |  |  | 
8 | COC(=O)CN1c2nc(C#N)c(C#N)nc2N(CC(=O)OC)c2nc(C#N)c(C#N)nc21 | 11.3 | 15.3 | 18.3 | 39.6 | > 71 | 17.3 | 22.6 | 11.4 | > 53.8 | > 100 |  |  |  |  |  |  |  |  |  | 
9 | N#CC(N=Nc1ccc(Cl)cc1)c1nc2ccccc2o1 (stereo not given) | 95.6 | > 100 | > 100 | > 100 | > 100 | > 100 | > 100 | > 100 | > 100 | > 100 |  |  |  |  |  |  |  |  |  | 
10 | Cc1cn(-c2cc(C(=O)Nc3cccc(-n4ccc5c(NC(=O)c6ccccc6)nccc54)c3)cc(C(F)(F)F)c2)cn1 | 10 | 1.71 | 2.2 | 1.73 | 1.2 | 18 | 14.6 | 7.89 | 0.76 | 19.7 | 0.72 | 0.525 | 0.525 | 0.252 | 0.29 | 1.17 | 0.802 | 0.514 | 0.195 | 0.51
11 | O=C(Nc1ccccc1F)c1cc2ccc(O)cc2oc1=Nc1ccccc1F | 6.95 | 61.7 | 3.75 | 5.03 | 6.18 | 3.94 | 15.3 | 5.26 | 3.85 | 10.1 |  |  |  |  |  |  |  |  |  | 
12 | C/C1=C\CC[C@@]2(C)O[C@@H]2C[C@@H](C2(C)CO2)CC/C(C)=C/CC1 (stereo not given in full) | 42.8 | 33.2 | 48.8 | 46.3 | 37.8 | > 100 | 50 | 33.9 | 47.1 | > 100 |  |  |  |  |  |  |  |  |  | 
13 | COc1cc2cc(Oc3ccc(NC(=O)c4cc(C(F)(F)F)cc(C(F)(F)F)c4)cc3)c(C)nc2cc1OC | > 50 | > 50 | > 50 | > 50 | > 50 | > 50 | > 50 | > 50 | > 50 | > 50 | 3.02 | 3.05 | 4.78 | 9.13 | 2.16 | 4.53 | > 50 | > 50 | 2.76 | 4.07
14 | CCCCNC(=S)N/N=C/c1cccc(C)n1 | > 100 | > 100 | > 100 | > 100 | > 100 | > 100 | > 100 | > 100 | > 100 | > 100 |  |  |  |  |  |  |  |  |  | 
15 | COC(=O)CCc1cc(OC)c2c(c1)[C@H](C(=O)OC)[C@@H](c1ccc(O)c(OC)c1)O2 | > 100 | > 100 | > 100 | > 100 | > 100 | > 100 | > 100 | > 100 | > 100 | > 100 |  |  |  |  |  |  |  |  |  | 
16 | NCCCN1CCN(CCCNc2ccc3nnn4c5ccccc5c(=O)c2c34)CC1 | 22.6 | 19.4 | 57.6 | 81.8 | 58.1 | 33.1 | > 100 | 75 | 32.1 | > 100 |  |  |  |  |  |  |  |  |  | 
17 | Nc1nc(Cl)cc(NCC2(CO)CCC(CCc3ccccc3)C2)n1 (stereo not given) | 30.3 | 27.3 | 30.2 | 52.7 | 27.3 | 31.2 | 33.1 | 35.6 | 15.6 | 22.6 |  |  |  |  |  |  |  |  |  | 
18 | C=CCNC(=S)N=Nc1c(O)[nH]c2ccc([N+](=O)[O-])cc12 | > 100 | > 100 | > 100 | > 100 | > 100 | > 100 | > 100 | > 100 | > 100 | > 100 |  |  |  |  |  |  |  |  |  | 
19 | Oc1[nH]c2ccc(Br)cc2c1N=NC(=S)Nc1ccc(F)cc1 | 2.7 | 22.4 | 22.3 | 63.6 | 15.3 | 25.7 | > 100 | 35.7 | 24.7 | 43 |  |  |  |  |  |  |  |  |  | 
20 | COC(C)(C)[C@@H](O)[C@H]1C[C@H](C)[C@@]2(CC[C@]3(C)[C@@H]2CC[C@@H]2[C@@]4(C)CC[C@@H](OC(C)=O)C(C)(C)[C@@H]4C[C@@H](OC4OC(COC(C)=O)C(O)C(O)C4O)[C@]23C)O1 (stereo not given in full) | 15.2 | 6.18 | 15.7 | 23.7 | 15.6 | 14.4 | 7.18 | 18.6 | 15.1 | 20.9 |  |  |  |  |  |  |  |  |  | 
21 | Cc1ccc(OCCn2cc(Nc3ccccc3)c(=O)n(CCOc3ccc(C)cc3)c2=O)cc1 | > 100 | > 100 | > 100 | > 100 | > 100 | > 100 | > 100 | > 100 | > 100 | > 100 |  |  |  |  |  |  |  |  |  | 
22 | COC(=O)c1c2c(cc3c1CCC3)CCC2 | > 100 | > 100 | > 100 | > 100 | > 100 | > 100 | > 100 | > 100 | 29.5 | > 100 |  |  |  |  |  |  |  |  |  | 
23 | CC(C)=CCC/C(C)=C/COC(C)(C)C1=CCC(C)CC1 (stereo not given) (tested in a mixture with another compound) | > 100 | > 100 | > 100 | > 100 | > 100 | > 100 | > 100 | > 100 | > 100 | > 100 |  |  |  |  |  |  |  |  |  | 
24 | Cc1cc(-c2nc3ccccc3s2)ccc1NC(=O)[C@@H](N)CCCCN | 24.1 | 24.8 | 25.2 | 45.3 | 20.8 | 21.3 | 25.7 | 14.5 | 28 | 37.8 |  |  |  |  |  |  |  |  |  | 
25 | NC(CC1=CS(=O)(=O)c2ccc(Cl)cc21)C(=O)O (stereo not given) | > 100 | > 100 | > 100 | > 100 | > 100 | > 100 | > 100 | > 100 | > 100 | > 100 |  |  |  |  |  |  |  |  |  | 
26 | COc1nc2ncc([C@@H](OC(C)=O)[C@@H](COC(C)=O)OC(C)=O)nc2c(=O)[nH]1 | > 100 | > 100 | > 100 | > 100 | > 100 | > 100 | > 100 | > 100 | > 100 | > 100 |  |  |  |  |  |  |  |  |  | 

From PubChem BioAssay (NCI)
